US9388141B2, “Acylaminocycloalkyl compounds suitable for treating disorders that respond to modulation of dopamine D3 receptor” (AbbVie Deutschland GmbH & Co. KG, priority 2013, dated 2016)
pKi: −log10 of the molar value.

How the values were obtained:
[1] = target: T1, human dopamine D2L receptors (long isoform) (Homo sapiens, UniProt P14416); test: Dopamine D2L receptor binding, [125I]-iodospiperone displacement; conditions: selectivity ratio Ki (D2L)/Ki (D3)
T1 construct: expressed in transfected cells; host or cells: HEK-293
Method: (§1) The substance to be tested was either dissolved in methanol/Chremophor® (BASF SE) or in dimethyl sulfoxide and then diluted with water to the desired concentration.
(§2) Each assay mixture was run in triplicate. • The incubation buffer contained 50 mM tris, 120 mM NaCl, 5 mM KCl, 2 mM CaCl2, 2 mM MgCl2 and 0.1% bovine serum albumin, 10 μM quinolone and 0.1% ascorbic acid (prepared fresh daily). […] Each assay mixture was run in triplicate. • The incubation buffer contained 50 mM tris, 120 mM NaCl, 5 mM KCl, 2 mM CaCl2, 2 mM MgCl2 and 0.1% bovine serum albumin. The buffer was adjusted to pH 7.4 with HCl. c) Measurement and Analysis: • After having been incubated at 25° C. for 60 minutes, the assay mixtures were filtered through a Whatman GF/B glass fiber filter under vacuum using a cell collecting device. The filters were transferred to scintillation viols using a filter transfer system. After 4 ml of Ultima Gold® (Packard) have been added, the samples were shaken for one hour and the radioactivity was then counted in a Beta-Counter (Packard, Tricarb 2000 or 2200CA).

[2] = Determination of the microsomal half-life / microsomal clearance; assay type: in vitro ADME; conditions: human liver microsomes, 0.5 μM test substance, 0.25 mg microsomal protein/ml, pH 7.4, 37° C.
Method: The metabolic stability of the compounds of the invention was determined in the following assay.
The test substances were incubated in a concentration of 0.5 μM as follows:
0.5 μM test substance are preincubated together with liver microsomes from different species (from rat, human or other species) (0.25 mg of microsomal protein/ml) in 0.05 M potassium phosphate buffer of pH 7.4 in microtiter plates at 37° C. for 5 min. The reaction is started by adding NADPH (1 mg/mL). After 0, 5, 10, 15, 20 and 30 min, 50 μl aliquots are removed, and the reaction is immediately stopped and cooled with the same volume of acetonitrile. The samples are frozen until analyzed. The remaining concentration of undegraded test substance is determined by MSMS. The half-life (T1/2) is determined from the gradient of the signal of test substance/unit time plot, it being possible to calculate the half-life of the test substance, assuming first order kinetics, from the decrease in the concentration of the compound with time. The microsomal clearance (mCl) is calculated from mCl=1n2/T1/2/(content of microsomal protein in mg/ml)×1000 [[…]] (modified from references: Di, The Society for Biomoleculur Screening, 2003, 453-462; Obach, DMD, 1999 vol 27. N 11, 1350-1359).

[3] = target: T2, human dopamine D3 receptors (Homo sapiens, UniProt P35462); test: Dopamine D3 receptor binding, [125I]-iodosulpride displacement; conditions: membranes of HEK-293 cells with human D3 receptors, 0.1 nM [125I]-iodosulpride
T2 construct: expressed in transfected cells; host or cells: HEK-293
Method: as §1, §2

T2 sequence (P35462 whole entry): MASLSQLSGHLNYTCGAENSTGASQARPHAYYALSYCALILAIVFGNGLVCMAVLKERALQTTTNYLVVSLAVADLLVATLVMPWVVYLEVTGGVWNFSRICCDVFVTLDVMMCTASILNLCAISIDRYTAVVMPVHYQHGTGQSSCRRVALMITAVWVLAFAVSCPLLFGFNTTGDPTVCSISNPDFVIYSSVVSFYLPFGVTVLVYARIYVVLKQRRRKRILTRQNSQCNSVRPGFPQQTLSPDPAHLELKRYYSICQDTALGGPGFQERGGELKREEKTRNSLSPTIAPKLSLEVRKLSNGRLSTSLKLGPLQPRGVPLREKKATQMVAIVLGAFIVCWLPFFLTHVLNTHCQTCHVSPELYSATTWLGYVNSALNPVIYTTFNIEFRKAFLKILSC
T1 sequence (P14416 whole entry, canonical isoform): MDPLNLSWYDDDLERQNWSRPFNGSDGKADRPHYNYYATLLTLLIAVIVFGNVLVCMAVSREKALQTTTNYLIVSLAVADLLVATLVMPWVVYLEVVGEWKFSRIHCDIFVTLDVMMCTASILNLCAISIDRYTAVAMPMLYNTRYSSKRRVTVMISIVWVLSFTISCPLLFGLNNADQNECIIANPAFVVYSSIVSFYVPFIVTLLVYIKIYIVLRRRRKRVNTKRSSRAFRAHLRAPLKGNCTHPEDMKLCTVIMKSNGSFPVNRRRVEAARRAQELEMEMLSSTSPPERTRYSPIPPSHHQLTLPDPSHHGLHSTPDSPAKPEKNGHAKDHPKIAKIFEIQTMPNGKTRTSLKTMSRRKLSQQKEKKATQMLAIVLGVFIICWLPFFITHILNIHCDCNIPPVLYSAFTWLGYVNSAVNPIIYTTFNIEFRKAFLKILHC

D2/D3, Ki (D2L)/Ki (D3) [1]	Human mCl [2]	pKi [3]	SMILES
+++ (+++>50)	∘ (∘: >120 μl min^−1 mg^−1)	> 8.00	COCCc1cc(N2CCN(CC[C@H]3CC[C@@H](NC(=O)[C@H]4C[C@@H](O)C4)CC3)CC2)nc(C(C)(C)C)n1 [Compound 17, cis-N-[cis-4-[2-[4-[2-tert-butyl-6-(2-methoxyethyl)pyrimidin-4-yl]piperazin-1-yl]ethyl]cyclohexyl]-3-hydroxy-cyclobutanecarboxamide]
+++ (+++>50)	+ (+: 20-120 μl min^−1 mg^−1)	> 8.00	COCCc1cc(N2CCN(CC[C@H]3CC[C@H](NC(=O)[C@H]4C[C@@H](O)C4)CC3)CC2)nc(C(C)(C)C)n1 [Compound 18, cis-N-[trans-4-[2-[4-[2-tert-butyl-6-(2-methoxyethyl)pyrimidin-4-yl]piperazin-1-yl]ethyl]cyclohexyl]-3-hydroxy-cyclobutanecarboxamide]
++ (++>20)	+ (+: 20-120 μl min^−1 mg^−1)	> 8.00	CC(C)(C)c1cc(N2CCN(CC[C@H]3CC[C@H](NC(=O)[C@H]4CC[C@H](O)CC4)CC3)CC2)nc(C(C)(C)C)n1 [Compound 20, trans-N-[trans-4-[2-[4-(2,6-ditert-butylpyrimidin-4-yl)piperazin-1-yl]ethyl]cyclohexyl]-4-hydroxy-cyclohexanecarboxamide]
++ (++>20)	+ (+: 20-120 μl min^−1 mg^−1)	> 8.00	CC(C)(C)c1nc(N2CCN(CC[C@H]3CC[C@H](NC(=O)[C@H]4CC[C@H](O)CC4)CC3)CC2)cc(C(F)(F)F)n1 [Compound 21, trans-N-[trans-4-[2-[4-[2-tert-butyl-6-(trifluoromethyl)pyrimidin-4-yl]piperazin-1-yl]ethyl]cyclohexyl]-4-hydroxy-cyclohexanecarboxamide]
+++ (+++>50)	+ (+: 20-120 μl min^−1 mg^−1)	> 7.30	CC(C)(C)c1cc(N2CCN(CC[C@H]3CC[C@@H](NC(=O)[C@H]4CC[C@H](O)CC4)CC3)CC2)nc(C(C)(C)C)n1 [Compound 22, trans-N-[cis-4-[2-[4-(2,6-ditert-butylpyrimidin-4-yl)piperazin-1-yl]ethyl]cyclohexyl]-4-hydroxy-cyclohexanecarboxamide]
+++ (+++>50)	+ (+: 20-120 μl min^−1 mg^−1)	> 7.30	CC(C)(C)c1nc(N2CCN(CC[C@H]3CC[C@@H](NC(=O)[C@H]4CC[C@H](O)CC4)CC3)CC2)cc(C(F)(F)F)n1 [Compound 23, Trans-N-[cis-4-[2-[4-[2-tert-butyl-6-(trifluoromethyl)pyrimidin-4-yl]piperazin-1-yl]ethyl]cyclohexyl]-4-hydroxy-cyclohexanecarboxamide]
++ (++>20)	∘ (∘: >120 μl min^−1 mg^−1)	> 7.30	COCCc1cc(N2CCN(CC[C@H]3CC[C@H](NC(=O)[C@H]4CC[C@H](OC)CC4)CC3)CC2)nc(C(C)(C)C)n1 [Compound 24, trans-N-[trans-4-[2-[4-[2-tert-butyl-6-(2-methoxyethyl)pyrimidin-4-yl]piperazin-1-yl]ethyl]cyclohexyl]-4-methoxy-cyclohexanecarboxamide]
++ (++>20)	+ (+: 20-120 μl min^−1 mg^−1)	> 8.00	CC(C)(C)c1nc(N2CCN(CCC3CCC(NC(=O)C4CCC(O)CC4)CC3)CC2)cc(C2(C)CC2)n1 (stereo not drawn) [Compound 27, N-[4-[2-[4-[2-tert-butyl-6-(1-methylcyclopropyl)pyrimidin-4-yl]piperazin-1-yl]ethyl]cyclohexyl]-4-hydroxy-cyclohexanecarboxamide]
++ (++>20)	+ (+: 20-120 μl min^−1 mg^−1)	> 8.00	CC(C)(C)c1nc(N2CCN(CC[C@H]3CC[C@@H](NC(=O)[C@H]4CC[C@H](O)CC4)CC3)CC2)cc(C2(C)CC2)n1 [Compound 28, Trans-N-[cis-4-[2-[4-[2-tert-butyl-6-(1-methylcyclopropyl)pyrimidin-4-yl]piperazin-1-yl]ethyl]cyclohexyl]-4-hydroxy-cyclohexanecarboxamide]
+ (+>10)	+ (+: 20-120 μl min^−1 mg^−1)	> 8.00	CC(C)(C)c1nc(C(F)F)cc(N2CCN(CCC3CCC(NC(=O)C4CCC(O)CC4)CC3)CC2)n1 (stereo not drawn) [Compound 29, N-[4-[2-[4-[2-tert-butyl-6-(difluoromethyl)pyrimidin-4-yl]piperazin-1-yl]ethyl]cyclohexyl]-4-hydroxy-cyclohexanecarboxamide]
++ (++>20)	+ (+: 20-120 μl min^−1 mg^−1)	> 8.00	CC(C)(C)c1nc(C(F)F)cc(N2CCN(CC[C@H]3CC[C@@H](NC(=O)[C@H]4CC[C@H](O)CC4)CC3)CC2)n1 [Compound 30, Trans-N-[cis-4-[2-[4-[2-tert-butyl-6-(difluoromethyl)pyrimidin-4-yl]piperazin-1-yl]ethyl]cyclohexyl]-4-hydroxy-cyclohexanecarboxamide]
++ (++>20)	+ (+: 20-120 μl min^−1 mg^−1)	> 8.00	CC(C)c1cc(N2CCN(CCC3CCC(NC(=O)C4CCC(O)CC4)CC3)CC2)nc(C(C)(C)C)n1 (stereo not drawn) [Compound 31, N-[4-[2-[4-(2-tert-butyl-6-isopropyl-pyrimidin-4-yl)piperazin-1-yl]ethyl]cyclohexyl]-4-hydroxy-cyclohexanecarboxamide]
++ (++>20)	+ (+: 20-120 μl min^−1 mg^−1)	> 8.00	CC(C)c1cc(N2CCN(CC[C@H]3CC[C@H](NC(=O)[C@H]4CC[C@H](O)CC4)CC3)CC2)nc(C(C)(C)C)n1 [Compound 32, Trans-N-[trans-4-[2-[4-(2-tert-butyl-6-isopropyl-pyrimidin-4-yl)piperazin-1-yl]ethyl]cyclohexyl]-4-hydroxy-cyclohexanecarboxamide]
+++ (+++>50)	+ (+: 20-120 μl min^−1 mg^−1)	> 7.30	COCCc1cc(N2CCN(CCC3CCC(NC(=O)C4CCC(O)CC4)CC3)C[C@H]2C)nc(C(C)(C)C)n1 (stereo partly drawn) [Compound 33, N-[4-[2-[(3R)-4-[2-tert-butyl-6-(2-methoxyethyl)pyrimidin-4-yl]-3-methyl-piperazin-1-yl]ethyl]cyclohexyl]-4-hydroxy-cyclohexanecarboxamide]

SMILES	D2/D3, Ki (D2L)/Ki (D3) [1]	Human mCl [2]	pKi [3]
CC(C)(C)c1nc(C2CCC2)cc(N2CCN(CC[C@H]3CC[C@H](NC(=O)[C@H]4CC[C@@H](O)CC4)CC3)CC2)n1.O=C(O)C(F)(F)F [Compound 14, Cis-N-[trans-4-[2-[4-(2-tert-butyl-6-cyclobutyl-pyrimidin-4-yl)piperazin-1-yl]ethyl]cyclohexyl]-4-hydroxy-cyclohexanecarboxamide; 2,2,2-trifluoroacetic acid]	++ (++>20)	∘ (∘: >120 μl min^−1 mg^−1)	> 8.00
CC(C)(C)c1nc(C2CCC2)cc(N2CCN(CC[C@H]3CC[C@@H](NC(=O)[C@H]4CC[C@@H](O)CC4)CC3)CC2)n1.O=C(O)C(F)(F)F [Compound 15, Cis-N-[cis-4-[2-[4-(2-tert-butyl-6-cyclobutyl-pyrimidin-4-yl)piperazin-1-yl]ethyl]cyclohexyl]-4-hydroxy-cyclohexanecarboxamide; 2,2,2-trifluoroacetic acid]	+++ (+++>50)	∘ (∘: >120 μl min^−1 mg^−1)	> 8.00
CC(C)(C)c1nc(C2CCC2)cc(N2CCN(CC[C@H]3C[C@H](NC(=O)[C@H]4CC[C@@H](O)CC4)C3)CC2)n1.O=C(O)C(F)(F)F [Compound 16, Cis-N-[trans-3-[2-[4-(2-tert-butyl-6-cyclobutyl-pyrimidin-4-yl)piperazin-1-yl]ethyl]cyclobutyl]-4-hydroxy-cyclohexanecarboxamide; 2,2,2-trifluoroacetic acid]	++ (++>20)	∘ (∘: >120 μl min^−1 mg^−1)	> 8.00
